# In patent publication US8053444B2 (Lek Pharmaceuticals d.d., priority 2007, dated 2011):
# What was measured:
# [1] = Stress stability testing in vials, sirolimus impurities by HPLC; assay type: physicochemical; parameters: Total sum of impurities / Max.unknown impurity: unit not given here
# Procedure: The origination of a solid solution of sirolimus was checked by X-ray diffraction analysis and Raman microscopy. […] These were exposed then to stress stability testing at 60° C. for 14 days and at 40° C. and 75% relative humidity for one month in vials. The amount of degradation products formed was compared to the samples of commercially available tablets comprising sirolimus.
# The HPLC analyses were performed with a Waters system equipped with a Synergi Max-RP, 5 μm, 250×4.6 mm column which was maintained in a column oven at 40° C. The mobile phase consisted of a 40:54:6 (V/V/V) mixture of CF3COOH/NaOH with pH 2.5, acetonitrile and water. The flow rate was 1.4 mL/min, and the detection wavelength was 278 nm.
# For the stability studies, two solid solutions were prepared using ethanol-soluble polymers polyvinylpyrrolidone (PVP) or hydroxypropylcellulose (HPC). The chemical stability was monitored for 14 days at 60° C. and 1 month at 40° C. and 75% relative humidity. The samples were stored in vials.
# [2] = as above; assay type: physicochemical; parameters: unit not given here; conditions: 7 days, 60° C.
# [3] = Solubility of sirolimus in water; conditions: volume of 250 ml of gastrointestinal fluid
# [4] = 1 month, 40° C./75% relative humidity, in vials
SMILES,"chemical stability of sirolimus, comparison in words ([1]; stress stability testing, comparison between samples of Table 3)",Max.unknown impurity ([1]; time of testing 0),Total sum of impurities ([1]; time of testing 0),Max.unknown impurity [2],Total sum of impurities [2],"Max.unknown impurity [1, 4]","Total sum of impurities [1, 4]","Max.unknown impurity ([1]; 14 days, 60° C., in vials)","Total sum of impurities ([1]; 14 days, 60° C., in vials)",amount of sirolimus dissolved in gastrointestinal fluid [3]
"CO[C@H]1C[C@@H]2CC[C@@H](C)[C@@](O)(O2)C(=O)C(=O)N2CCCC[C@H]2C(=O)O[C@H]([C@H](C)C[C@@H]2CC[C@@H](O)[C@H](OC)C2)CC(=O)[C@H](C)/C=C(\C)[C@@H](O)[C@@H](OC)C(=O)[C@H](C)C[C@H](C)/C=C/C=C/C=C/1C [Example 1, sirolimus]",significantly less stable,0.25,3.34,1.91,9.09,,,,,
"CO[C@H]1C[C@@H]2CC[C@@H](C)[C@@](O)(O2)C(=O)C(=O)N2CCCC[C@H]2C(=O)O[C@H]([C@H](C)C[C@@H]2CC[C@@H](O)[C@H](OC)C2)CC(=O)[C@H](C)/C=C(\C)[C@@H](O)[C@@H](OC)C(=O)[C@H](C)C[C@H](C)/C=C/C=C/C=C/1C [Substance in a crystal form, sirolimus]",,0.19,0.70,,,0.26,0.59,0.26,0.60,
"CO[C@H]1C[C@@H]2CC[C@@H](C)[C@@](O)(O2)C(=O)C(=O)N2CCCC[C@H]2C(=O)O[C@H]([C@H](C)C[C@@H]2CC[C@@H](O)[C@H](OC)C2)CC(=O)[C@H](C)/C=C(\C)[C@@H](O)[C@@H](OC)C(=O)[C@H](C)C[C@H](C)/C=C/C=C/C=C/1C [Sirolimus, (3S,6R,7E,9R,10R,12R,14S,15E,17E,19E,21S,23S,26R,27R,34aS)-9,10,12,13, -14,21,22,23,24,25,26,27,32,33,34,34a-hexadecahydro-9,27-dihydroxy-3-[(1R)-2-[(1S,3R,4R)-4-hydroxy-3-methoxycyclohexyl]-1-methylethyl]-10,21-dimethox-y-6,8,12,14,20,26-hexamethyl-23,27-epoxy-3H-pyrido[2,1-c][1,4]oxaazacycloh-entriacontine-1,5,11,28,29(4H,6H,31H)-pentone]",,,,,,,,,,about 0.65 mg
